The text below walks through data of patent US20250320206A1, “STAT6 DEGRADERS” (Gilead Sciences, Inc., priority 2024, published 2025).

In test [1] the test system is Eotaxin-3 release in human whole blood stimulated with IL-4. Briefly: Human Whole Blood Eotaxin-3 Assay (IL-4 stimulated eotaxin-3 release). Type of test: cell-based. The following applies: IL-4 stimulation, 48 h, values given for compounds with >80% Emax, geometric mean. The gist of the method: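 Lithium-heparin human whole blood preincubated 2 h at 37° C with 4-fold serially diluted compounds (0.5% DMSO), then stimulated with recombinant human IL-4 ([…]) for 48 h. Eotaxin-3 (CCL26) in supernatant quantified by MSD immunoassay.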

The next test concerns the target T1, STAT6 (Homo sapiens, UniProt P42226).
T1 construct: These cells express endogenous STAT6; host or cells: HeLa LgBiT clone 4.14
T1 sequence (P42226 1-847): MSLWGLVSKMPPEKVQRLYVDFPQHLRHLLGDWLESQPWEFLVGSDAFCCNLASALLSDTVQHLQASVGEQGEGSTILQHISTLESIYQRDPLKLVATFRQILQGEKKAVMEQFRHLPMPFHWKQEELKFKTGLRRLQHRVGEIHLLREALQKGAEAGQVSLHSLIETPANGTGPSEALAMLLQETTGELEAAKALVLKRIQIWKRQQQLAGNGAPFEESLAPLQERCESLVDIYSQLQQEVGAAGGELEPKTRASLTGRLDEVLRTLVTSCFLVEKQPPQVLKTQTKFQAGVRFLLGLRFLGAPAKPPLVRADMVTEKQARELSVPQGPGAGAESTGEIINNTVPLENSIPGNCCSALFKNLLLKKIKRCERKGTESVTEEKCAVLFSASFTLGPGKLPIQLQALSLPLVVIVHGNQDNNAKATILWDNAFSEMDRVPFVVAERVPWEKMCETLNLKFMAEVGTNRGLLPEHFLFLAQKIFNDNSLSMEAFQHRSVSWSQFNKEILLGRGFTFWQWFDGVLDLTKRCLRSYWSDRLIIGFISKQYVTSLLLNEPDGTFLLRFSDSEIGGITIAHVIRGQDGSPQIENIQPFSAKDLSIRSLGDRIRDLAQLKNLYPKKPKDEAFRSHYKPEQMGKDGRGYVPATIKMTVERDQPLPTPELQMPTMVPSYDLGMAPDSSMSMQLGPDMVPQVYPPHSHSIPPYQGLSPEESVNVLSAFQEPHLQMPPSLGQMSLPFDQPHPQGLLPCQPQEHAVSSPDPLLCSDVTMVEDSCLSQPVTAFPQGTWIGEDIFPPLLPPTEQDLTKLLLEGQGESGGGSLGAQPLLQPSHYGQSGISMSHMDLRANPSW
The test is described as follows: Stat6 Degrader Assay (HiBiT based, HeLa LgBiT clone 4.14). Type of test: cell-based. To be noted: HeLa LgBiT clone 4.14 HiBiT-STAT6, 4-24 h incubation; values given for compounds with >80% Emax; geometric mean; read-out: STAT6 degradation DC50. In outline: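 HeLa LgBiT clone 4.14 cells with CRISPR HiBiT-tagged endogenous STAT6, 5000 cells/well, compound dosed then incubated 4-24 h at 37° C, 5% CO2. Nano-Glo substrate added, 0.5 h, luminescence read as non-degraded STAT6. Terfenadine 50 μM (cell kill) defines 100% degradation.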
(HiBiT is a short tag that completes a luciferase, so light tracks the accessible tagged protein.)

Take `CNc1ccn(-c2ccnc3c2cc(CN2CCC(c4c(F)cc(C(=O)N5CCC(CN6CCN(Cc7ccc8c(c7)n(C7CC7)c(=O)n8[C@H]7CCC(=O)NC7=O)C[C@@H]6C)CC5)cc4F)CC2)n3C)c(=O)c1` (single isomer, unassigned) [Example 3u217]: the EC50 (commonly the concentration that produces a half-maximal response) in test [1] is 0.6 nM. The DC50 – broadly, the midpoint of the concentration-degradation curve – on STAT6 stood at 1.8 nM.

Regarding `CNc1c(F)cn(-c2ccnc3c2cc(CN2CCC(c4c(F)cc(C(=O)N5CCC(CN6CCN(Cc7ccc8c(c7)C7(CC7)C(=O)N8C7CCC(=O)NC7=O)C[C@@H]6C)CC5)cc4F)CC2)n3C)c(=O)c1F` (stereo partly drawn) [Example 3u115, 3-(5′-(((S)-4-((1-(4-(1-((4-(3,5-difluoro-4-(methylamino)-2-oxopyridin-1 (2H)-yl)-1-methyl-1H-pyrrolo[2,3-b]pyridin-2-yl)methyl)piperidin-4-yl)-3,5-difluorobenzoyl)piperidin-4-yl)-methyl)-3-methylpiperazin-1-yl)methyl)-2′-oxospiro[cyclopropane-1,3′-indolin]-1′-yl)piperidine-2,6-dione], the response in test [1] was half-maximal at 9.1 nM (EC50). The 50% degradation concentration (DC50) on STAT6 is 8.3 nM.

Consider `CNc1ccn(-c2ccnc3c2cc([C@H](C)N2CCC(c4c(F)cc(C(=O)N5CCC(CN6CCN(Cc7ccc8c(c7)C(C)(C)C(=O)N8[C@@H]7CCC(=O)NC7=O)C[C@@H]6C)CC5)cc4F)CC2)n3C)c(=O)c1` (single isomer, unassigned) [Example 3u82], for which, in test [1], the EC50 is 1.1 nM. Moreover, the DC50 at STAT6 was determined as 1.1 nM.

Consider `CNc1ccn(-c2ccnc3c2cc(CN2CCC(c4c(C)cc(C(=O)N(C)c5ccc(C6CCN(Cc7ccc8c(c7)n(C)c(=O)n8C7CCC(=O)NC7=O)CC6)cc5)cc4F)CC2)n3C)c(=O)c1` (centres unmarked) [Example 3u248, N-(4-(1-((1-(2,6-dioxopiperidin-3-yl)-3-methyl-2-oxo-2,3-dihydro-1H-benzo[d]imidazol-5-yl)methyl)piperidin-4-yl)phenyl)-3-fluoro-N,5-dimethyl-4-(1-((1-methyl-4-(4-(methylamino)-2-oxopyridin-1 (2H)-yl)-1H-pyrrolo[2,3-b]pyridin-2-yl)methyl)piperidin-4-yl)benzamide], for which the concentration for a half-maximal effect (EC50) in test [1] amounted to 0.3 nM. For the same compound, at STAT6, the DC50 is 0.2 nM.

In turn, `CNc1ccn(-c2ccnc3c2cc([C@H](C)N2CC=C(c4c(C)cc(C(=O)N5CCC(CN6CCN(Cc7ccc8c(c7)n(C)c(=O)n8C7CCC(=O)NC7=O)CC6)CC5)cc4F)CC2)n3C)c(=O)c1` (stereo partly drawn) [Example 3u155, 3-(5-((4-((1-(3-fluoro-5-methyl-4-(1-((S)-1-(1-methyl-4-(4-(methylamino)-2-oxopyridin-1 (2H)-yl)-1H-pyrrolo[2,3-b]pyridin-2-yl)ethyl)-1,2,3,6-tetrahydropyridin-4-yl)benzoyl)piperidin-4-yl)methyl)piperazin-1-yl)methyl)-3-methyl-2-oxo-2,3-dihydro-1H-benzo[d]imidazol-1-yl)piperidine-2,6-dione] had an EC50 in test [1] of 0.5 nM. For the same compound, the DC50 on STAT6 was 0.3 nM.

Compound `CNc1ccn(-c2ccnc3c2cc(CN2CC=C(c4c(C)cc(C(=O)N5CCC(CN6CCN(Cc7ccc8c(c7)C(C)(C)C(=O)N8[C@@H]7CCC(=O)NC7=O)C[C@@H]6C)CC5)cc4F)CC2)n3C)c(=O)c1` (single isomer, unassigned) [Example 3u180] came in with an EC50 in test [1] of 17.3 nM. In addition, at STAT6, the DC50 is 8.8 nM.

In test [1], `CNc1ccn(-c2ccnc3c2cc([C@H](C)N2CCC(c4c(C)cc(C(=O)N5CCC(CN6CCN(Cc7ccc8c(c7)n(C7CC7)c(=O)n8C7CCC(=O)NC7=O)C[C@@H]6C)CC5)cc4F)CC2)n3C)c(=O)c1` (stereo partly drawn) [Example 3u197, 3-(3-cyclopropyl-5-(((S)-4-((1-(3-fluoro-5-methyl-4-(1-((S)-1-(1-methyl-4-(4-(methyl-amino)-2-oxopyridin-1 (2H)-yl)-1H-pyrrolo[2,3-b]pyridin-2-yl)ethyl)piperidin-4-yl)benzoyl)piperidin-4-yl)methyl)-3-methylpiperazin-1-yl)methyl)-2-oxo-2,3-dihydro-1H-benzo[d]imidazol-1-yl)piperidine-2,6-dione] displayed an EC50 of 2.7 nM. At STAT6, the 50% degradation concentration (DC50) is 1.2 nM.

As for `CNc1cc(=O)n(-c2ccnc3c2cc([C@H](C)N2CC=C(c4c(F)cc(C(=O)N5CCC(CN6CCN(Cc7ccc8c(c7)n(C)c(=O)n8C7CCC(=O)NC7=O)CC6)CC5)cc4F)CC2)n3C)cc1F` (mixture of isomers) [Example 3u51, 3-(5-((4-((1-(3,5-difluoro-4-(1-((S)-1-(4-(5-fluoro-4-(methylamino)-2-oxopyridin-1 (2H)-yl)-1-methyl-1H-pyrrolo[2,3-b]pyridin-2-yl)ethyl)-1,2,3,6-tetrahydropyridin-4-yl)benzoyl)piperidin-4-yl)methyl)piperazin-1-yl)methyl)-3-methyl-2-oxo-2,3-dihydro-1H-benzo[d]imidazol-1-yl)piperidine-2,6-dione], the 50% effective concentration (EC50) in test [1] was found to be 1.9 nM. The DC50 on STAT6 amounted to 1.8 nM.

`CNc1ccn(-c2ccnc3c2cc(CN2CCC(c4c(F)cc(C(=O)N5CCC(CN6CCN(Cc7ccc8c(c7)C7(CC7)C(=O)N8[C@@H]7CCC(=O)NC7=O)C[C@@H]6C)CC5)cc4F)CC2)n3C)c(=O)c1` (single isomer, unassigned) [Example 3u224] displayed an EC50 in test [1] of 1.5 nM. The DC50 on STAT6 was determined as 1.3 nM.

Consider `C[C@H]1CN(Cc2cc3c(cc2F)N(C2CCC(=O)NC2=O)C(=O)C3(C)C)CCN1CC1CCN(C(=O)c2cc(F)c(C3=CCN([C@@H](C)c4cc5c(-n6ccc7c(c6=O)CCN7)ccnc5n4C)CC3)c(F)c2)CC1` (stereo partly drawn) [Example 3u200, 3-(5-(((S)-4-((1-(3,5-difluoro-4-(1-((S)-1-(1-methyl-4-(4-oxo-1,2,3,4-tetrahydro-5H-pyrrolo[3,2-c]pyridin-5-yl)-1H-pyrrolo[2,3-b]pyridin-2-yl)ethyl)-1,2,3,6-tetrahydropyridin-4-yl)-benzoyl)piperidin-4-yl)methyl)-3-methylpiperazin-1-yl)methyl)-6-fluoro-3,3-dimethyl-2-oxoindolin-1-yl)piperidine-2,6-dione], for which a half-maximal effect in test [1] (EC50) was put at 9.9 nM. In addition, the half-maximal degradation concentration (DC50) on STAT6 is 2 nM.

In test [1], `CNc1ccn(-c2ccnc3c2cc([C@H](C)N2CC=C(c4c(C)cc(C(=O)N5CCC(CN6CCN(Cc7ccc8c(c7)C(C)(C)C(=O)N8[C@@H]7CCC(=O)NC7=O)C[C@@H]6C)CC5)cc4F)CC2)n3C)c(=O)c1` (single isomer, unassigned) [Example 3u177] had a concentration giving a half-maximal response (EC50) of 3.1 nM. Besides, at STAT6, the DC50 was determined as 1.8 nM.

For the compound `CNc1cc(=O)n(-c2ccnc3c2cc([C@H](C)N2CC=C(c4c(C)cc(C(=O)N5CCC(CN6CCN(Cc7ccc8c(c7)C7(CC7)C(=O)N8[C@H]7CCC(=O)NC7=O)CC6)CC5)cc4F)CC2)n3C)cc1F` (single isomer, unassigned) [Example 3u67], the response in test [1] was half-maximal at 5.8 nM (EC50). On STAT6, the DC50 came to 1.4 nM.

Turning to `CNc1ccn(-c2ccnc3c2cc([C@H](C)N2CC=C(c4c(C)cc(C(=O)N5CCC(CN6CCN(c7ccc8c(c7)n(C)c(=O)n8[C@H]7CCC(=O)NC7=O)CC6)CC5)cc4F)CC2)n3C)c(=O)c1` (single isomer, unassigned) [Example 3u293], the midpoint of the response in test [1], the EC50, lay at 0.8 nM. The half-maximal degradation concentration (DC50) at STAT6 turned out to be 1 nM.
